In assay [1] the target is Tyrosine-protein kinase ABL2 (Homo sapiens, UniProt P42684).
In assay [2] the target is Mitogen-activated protein kinase 9 (Homo sapiens, UniProt P45984).
Assay [3] deals with T1, Delta(24)-sterol reductase (Homo sapiens, UniProt Q15392).
T1 sequence (Q15392 whole entry): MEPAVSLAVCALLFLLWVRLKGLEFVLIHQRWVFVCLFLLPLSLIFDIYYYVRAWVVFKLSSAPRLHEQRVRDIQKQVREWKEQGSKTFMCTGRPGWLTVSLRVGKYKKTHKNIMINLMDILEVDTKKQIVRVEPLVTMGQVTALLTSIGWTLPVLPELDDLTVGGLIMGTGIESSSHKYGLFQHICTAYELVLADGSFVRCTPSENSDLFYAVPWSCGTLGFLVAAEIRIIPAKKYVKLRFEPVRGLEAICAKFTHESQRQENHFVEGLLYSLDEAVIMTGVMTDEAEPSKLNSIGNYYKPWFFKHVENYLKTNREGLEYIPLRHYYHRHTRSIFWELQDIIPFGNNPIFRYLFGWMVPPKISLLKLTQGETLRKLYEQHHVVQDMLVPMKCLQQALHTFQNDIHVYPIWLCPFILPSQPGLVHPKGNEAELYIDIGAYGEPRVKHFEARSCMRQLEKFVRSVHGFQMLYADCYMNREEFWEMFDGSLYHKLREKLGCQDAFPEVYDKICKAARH

The target in another assay is Wee1-like protein kinase (Homo sapiens, UniProt P30291).
Chain of Wee1-like protein kinase (P30291 whole entry): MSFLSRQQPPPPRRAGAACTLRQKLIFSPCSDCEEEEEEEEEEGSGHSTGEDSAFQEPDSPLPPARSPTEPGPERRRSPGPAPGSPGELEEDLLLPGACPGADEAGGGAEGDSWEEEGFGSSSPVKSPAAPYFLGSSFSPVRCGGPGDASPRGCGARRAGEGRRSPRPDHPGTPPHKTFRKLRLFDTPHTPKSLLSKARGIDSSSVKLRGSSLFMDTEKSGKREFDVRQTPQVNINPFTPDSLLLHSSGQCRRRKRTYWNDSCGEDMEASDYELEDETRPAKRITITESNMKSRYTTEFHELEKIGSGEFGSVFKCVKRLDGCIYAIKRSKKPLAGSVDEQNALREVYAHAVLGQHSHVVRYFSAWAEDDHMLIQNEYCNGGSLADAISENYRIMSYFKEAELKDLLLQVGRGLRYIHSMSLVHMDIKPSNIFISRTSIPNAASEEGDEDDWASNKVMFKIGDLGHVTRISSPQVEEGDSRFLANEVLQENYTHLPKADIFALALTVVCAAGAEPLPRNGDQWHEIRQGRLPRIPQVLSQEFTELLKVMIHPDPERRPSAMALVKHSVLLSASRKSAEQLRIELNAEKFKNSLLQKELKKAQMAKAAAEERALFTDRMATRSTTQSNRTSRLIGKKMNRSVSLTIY
For assay [4], the target named is T2, Succinate--CoA ligase [ADP-forming] subunit beta, mitochondrial (Homo sapiens, UniProt Q9P2R7).
T2 sequence (Q9P2R7 whole entry): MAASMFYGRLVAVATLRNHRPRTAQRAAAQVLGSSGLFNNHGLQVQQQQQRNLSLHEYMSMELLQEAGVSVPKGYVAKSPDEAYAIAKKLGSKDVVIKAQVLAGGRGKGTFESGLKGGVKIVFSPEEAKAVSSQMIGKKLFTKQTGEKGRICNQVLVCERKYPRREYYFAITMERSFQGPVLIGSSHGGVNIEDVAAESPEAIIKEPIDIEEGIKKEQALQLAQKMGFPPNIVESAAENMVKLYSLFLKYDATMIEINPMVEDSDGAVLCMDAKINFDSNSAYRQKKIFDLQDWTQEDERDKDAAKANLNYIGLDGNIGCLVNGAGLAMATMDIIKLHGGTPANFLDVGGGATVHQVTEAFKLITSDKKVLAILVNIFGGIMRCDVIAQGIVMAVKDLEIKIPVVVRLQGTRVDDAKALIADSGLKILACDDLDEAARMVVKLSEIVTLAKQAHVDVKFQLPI

The target of assay [5] is T3, ATP-dependent 6-phosphofructokinase, platelet type (Homo sapiens, UniProt Q01813).
T3 sequence (Q01813 whole entry): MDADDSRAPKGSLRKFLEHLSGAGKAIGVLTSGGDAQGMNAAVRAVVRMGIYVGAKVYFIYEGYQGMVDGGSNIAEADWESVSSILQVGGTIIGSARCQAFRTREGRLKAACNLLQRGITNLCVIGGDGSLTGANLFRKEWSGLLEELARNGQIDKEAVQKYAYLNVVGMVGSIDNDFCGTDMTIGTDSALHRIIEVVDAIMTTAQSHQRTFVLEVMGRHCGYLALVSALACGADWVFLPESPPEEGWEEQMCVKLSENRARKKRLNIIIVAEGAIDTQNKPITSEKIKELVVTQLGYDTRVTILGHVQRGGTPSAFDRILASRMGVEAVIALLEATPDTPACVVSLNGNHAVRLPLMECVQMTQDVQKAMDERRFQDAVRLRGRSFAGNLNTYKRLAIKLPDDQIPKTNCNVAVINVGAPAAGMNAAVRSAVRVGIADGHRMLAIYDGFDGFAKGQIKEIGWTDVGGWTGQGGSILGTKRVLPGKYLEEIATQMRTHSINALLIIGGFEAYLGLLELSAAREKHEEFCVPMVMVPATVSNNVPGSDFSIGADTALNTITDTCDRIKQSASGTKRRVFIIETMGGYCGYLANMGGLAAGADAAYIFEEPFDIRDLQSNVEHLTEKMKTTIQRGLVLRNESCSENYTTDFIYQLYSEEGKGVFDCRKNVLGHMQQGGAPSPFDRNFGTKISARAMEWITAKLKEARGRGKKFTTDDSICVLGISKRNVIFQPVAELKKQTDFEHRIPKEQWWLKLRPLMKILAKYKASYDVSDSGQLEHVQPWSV

In assay [6] the target is Tyrosine-protein kinase CSK (Homo sapiens, UniProt P41240).
Chain of Tyrosine-protein kinase CSK (P41240 whole entry): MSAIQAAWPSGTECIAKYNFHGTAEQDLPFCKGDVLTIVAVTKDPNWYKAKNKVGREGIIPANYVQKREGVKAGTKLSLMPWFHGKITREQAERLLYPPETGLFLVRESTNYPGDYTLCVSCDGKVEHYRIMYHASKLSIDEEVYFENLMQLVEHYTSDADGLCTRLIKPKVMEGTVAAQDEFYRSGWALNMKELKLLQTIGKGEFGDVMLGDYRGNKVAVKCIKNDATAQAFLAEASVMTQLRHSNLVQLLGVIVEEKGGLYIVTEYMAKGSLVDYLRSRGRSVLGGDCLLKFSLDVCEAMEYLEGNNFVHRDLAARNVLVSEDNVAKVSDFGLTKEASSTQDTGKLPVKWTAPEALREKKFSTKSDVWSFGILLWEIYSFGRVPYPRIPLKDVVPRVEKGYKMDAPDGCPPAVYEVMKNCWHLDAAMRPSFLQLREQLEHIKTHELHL
Assay [7] concerns the target Tyrosine-protein kinase SYK (Homo sapiens, UniProt P43405).
Assay [8] concerns the target Calcium/calmodulin-dependent protein kinase kinase 2 (Homo sapiens, UniProt Q96RR4).
Assay [9] has as its target T4, Adenine phosphoribosyltransferase (Homo sapiens, UniProt P07741).
T4 sequence (P07741 whole entry): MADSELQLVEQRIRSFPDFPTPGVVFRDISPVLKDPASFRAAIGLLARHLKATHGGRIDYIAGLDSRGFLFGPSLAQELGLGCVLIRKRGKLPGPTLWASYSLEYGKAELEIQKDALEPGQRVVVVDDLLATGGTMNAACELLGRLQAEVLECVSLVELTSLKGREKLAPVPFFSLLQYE

The target of assay [10] is T5, Uncharacterized protein FLJ45252 (Homo sapiens, UniProt Q6ZSR9).
T5 sequence (Q6ZSR9 whole entry): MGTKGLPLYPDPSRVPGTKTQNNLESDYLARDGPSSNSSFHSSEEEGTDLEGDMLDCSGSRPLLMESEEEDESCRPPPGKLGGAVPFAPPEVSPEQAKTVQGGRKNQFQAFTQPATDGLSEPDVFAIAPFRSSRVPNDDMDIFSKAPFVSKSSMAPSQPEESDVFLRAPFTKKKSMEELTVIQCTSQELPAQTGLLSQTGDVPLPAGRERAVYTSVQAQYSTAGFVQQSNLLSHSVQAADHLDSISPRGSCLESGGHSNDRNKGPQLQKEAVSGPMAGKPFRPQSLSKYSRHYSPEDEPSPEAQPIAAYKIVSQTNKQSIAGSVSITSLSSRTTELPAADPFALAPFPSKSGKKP
The settings on record: read-out: Kd apparent; k-562, colo 205, sk-n-be(2) and mv-4-11.

The target in assay [11] is Protein kinase C theta type (Homo sapiens, UniProt Q04759).
Chain of Protein kinase C theta type (Q04759 whole entry): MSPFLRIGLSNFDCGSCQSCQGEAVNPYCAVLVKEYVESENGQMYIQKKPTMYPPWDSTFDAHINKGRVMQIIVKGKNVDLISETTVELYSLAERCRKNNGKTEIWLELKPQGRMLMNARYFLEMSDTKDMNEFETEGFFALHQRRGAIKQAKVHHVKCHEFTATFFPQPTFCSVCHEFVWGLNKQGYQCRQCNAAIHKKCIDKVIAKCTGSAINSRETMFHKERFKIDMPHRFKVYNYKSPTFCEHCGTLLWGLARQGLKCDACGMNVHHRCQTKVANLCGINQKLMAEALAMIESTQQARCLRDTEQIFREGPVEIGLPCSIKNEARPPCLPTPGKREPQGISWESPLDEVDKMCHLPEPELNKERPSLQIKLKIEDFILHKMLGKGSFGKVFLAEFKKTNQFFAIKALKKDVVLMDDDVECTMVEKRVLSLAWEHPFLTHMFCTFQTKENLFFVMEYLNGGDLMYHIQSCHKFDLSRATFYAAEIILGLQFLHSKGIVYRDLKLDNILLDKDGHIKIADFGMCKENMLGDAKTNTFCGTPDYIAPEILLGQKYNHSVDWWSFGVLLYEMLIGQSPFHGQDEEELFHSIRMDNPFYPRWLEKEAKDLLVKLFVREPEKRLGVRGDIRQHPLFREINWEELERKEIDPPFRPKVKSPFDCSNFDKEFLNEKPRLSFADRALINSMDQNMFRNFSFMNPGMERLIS

Calls of active or inactive are those of the source. For most assays here, no stated cut-off is given here; in the data, actives have a measured Kd and inactives only a lower limit.

Chain of Calcium/calmodulin-dependent protein kinase kinase 2 (Q96RR4 whole entry): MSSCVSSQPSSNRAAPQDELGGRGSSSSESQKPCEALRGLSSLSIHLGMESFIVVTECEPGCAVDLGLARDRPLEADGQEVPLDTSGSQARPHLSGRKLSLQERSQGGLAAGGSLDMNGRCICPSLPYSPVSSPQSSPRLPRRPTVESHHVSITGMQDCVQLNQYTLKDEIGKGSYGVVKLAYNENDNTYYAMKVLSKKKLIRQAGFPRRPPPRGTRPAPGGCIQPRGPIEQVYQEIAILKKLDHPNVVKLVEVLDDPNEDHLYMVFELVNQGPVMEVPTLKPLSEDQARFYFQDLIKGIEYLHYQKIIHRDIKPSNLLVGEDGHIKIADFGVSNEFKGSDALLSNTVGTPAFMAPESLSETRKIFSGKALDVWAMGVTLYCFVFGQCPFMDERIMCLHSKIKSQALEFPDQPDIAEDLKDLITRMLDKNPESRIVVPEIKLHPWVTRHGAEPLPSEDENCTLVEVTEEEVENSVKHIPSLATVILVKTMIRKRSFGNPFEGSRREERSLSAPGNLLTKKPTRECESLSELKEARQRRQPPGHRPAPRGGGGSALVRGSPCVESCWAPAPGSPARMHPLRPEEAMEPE
Chain of Tyrosine-protein kinase ABL2 (P42684 whole entry): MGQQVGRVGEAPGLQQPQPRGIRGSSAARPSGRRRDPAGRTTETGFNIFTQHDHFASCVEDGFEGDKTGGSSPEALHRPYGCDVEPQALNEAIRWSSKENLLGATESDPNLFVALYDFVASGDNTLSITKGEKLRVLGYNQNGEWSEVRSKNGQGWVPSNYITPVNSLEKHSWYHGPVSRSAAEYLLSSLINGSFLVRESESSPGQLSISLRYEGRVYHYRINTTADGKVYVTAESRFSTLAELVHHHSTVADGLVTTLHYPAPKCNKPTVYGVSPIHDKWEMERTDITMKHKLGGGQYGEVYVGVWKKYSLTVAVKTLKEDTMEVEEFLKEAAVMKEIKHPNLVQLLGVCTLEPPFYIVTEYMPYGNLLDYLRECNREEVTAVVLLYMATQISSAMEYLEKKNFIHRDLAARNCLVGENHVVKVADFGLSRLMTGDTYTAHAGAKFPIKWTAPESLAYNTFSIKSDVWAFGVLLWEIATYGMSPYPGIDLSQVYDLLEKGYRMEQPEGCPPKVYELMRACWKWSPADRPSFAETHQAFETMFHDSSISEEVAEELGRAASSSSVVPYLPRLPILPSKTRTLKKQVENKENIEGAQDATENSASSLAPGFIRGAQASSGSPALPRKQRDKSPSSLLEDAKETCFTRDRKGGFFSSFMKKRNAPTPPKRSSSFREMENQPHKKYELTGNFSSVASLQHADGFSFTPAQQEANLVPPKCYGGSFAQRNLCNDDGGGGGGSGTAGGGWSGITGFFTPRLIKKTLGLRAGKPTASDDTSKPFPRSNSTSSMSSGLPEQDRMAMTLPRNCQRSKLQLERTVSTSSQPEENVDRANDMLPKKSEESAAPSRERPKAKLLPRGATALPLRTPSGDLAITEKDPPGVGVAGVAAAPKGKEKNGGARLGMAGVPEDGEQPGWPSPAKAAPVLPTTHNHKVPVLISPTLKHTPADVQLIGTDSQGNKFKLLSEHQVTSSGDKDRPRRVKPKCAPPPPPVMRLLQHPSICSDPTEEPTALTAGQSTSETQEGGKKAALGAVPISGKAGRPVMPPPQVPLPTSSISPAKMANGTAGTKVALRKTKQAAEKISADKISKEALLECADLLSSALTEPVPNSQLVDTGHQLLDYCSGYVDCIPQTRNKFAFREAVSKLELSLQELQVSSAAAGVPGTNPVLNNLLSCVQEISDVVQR
Chain of Mitogen-activated protein kinase 9 (P45984 whole entry): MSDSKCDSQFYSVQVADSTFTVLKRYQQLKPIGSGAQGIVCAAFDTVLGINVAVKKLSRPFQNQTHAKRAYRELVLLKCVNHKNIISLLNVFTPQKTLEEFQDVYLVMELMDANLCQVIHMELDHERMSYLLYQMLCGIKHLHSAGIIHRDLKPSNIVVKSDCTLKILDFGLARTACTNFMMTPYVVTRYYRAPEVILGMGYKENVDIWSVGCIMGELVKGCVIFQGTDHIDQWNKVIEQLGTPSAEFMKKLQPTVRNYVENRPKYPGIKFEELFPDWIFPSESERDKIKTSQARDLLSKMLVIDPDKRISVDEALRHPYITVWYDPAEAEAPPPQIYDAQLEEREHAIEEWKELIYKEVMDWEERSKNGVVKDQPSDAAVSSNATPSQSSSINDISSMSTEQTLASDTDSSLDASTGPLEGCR

For the compound `Cn1cnc2c(F)c(Nc3ccc(Br)cc3F)c(C(=O)NOCCO)cc21` [BINIMETINIB], the Kd (in assay [1]; in [2]; in [3]; at Wee1-like protein kinase; in assay [4]; in [5]) was > 30 µM (inactive) each time. For the same compound, the Kd in [6], in [7], in assay [8], in assay [9], in assay [10] and in assay [11] was > 30 µM (inactive) each time.

Regarding `CCn1c(C(=O)N(C2CC2)C2CC2)cc2c3c(ncn3C)c(Nc3cc(C)n(C)n3)nc21` [BMS-911543], the Kd (in assay [1]; in assay [2]; in assay [3]; at Wee1-like protein kinase; in assay [4]; in assay [5]) was > 30 µM (inactive) each time. In addition, the Kd in [6], in assay [7], in assay [8], in assay [9], in assay [10] and in assay [11] was > 30 µM (inactive) each time.

For `COc1cc2ncnc(Oc3cccc(NC(=O)Nc4cc(C(C)(C)C(F)(F)F)on4)c3)c2cc1OC` [CEP-32496], the Kd was 0.03 µM (active) in assay [1]; 0.148 µM (active) in assay [2]; > 30 µM (inactive) in assay [3]; > 30 µM (inactive) on Wee1-like protein kinase; > 30 µM (inactive) in [4]; > 30 µM (inactive) in assay [5]. Moreover, the Kd in [6], in assay [7], in [8], in [9], in assay [10] and in [11] was > 30 µM (inactive) each time.

Take `Cc1cc(Nc2ncc(Cl)c(Nc3ccccc3S(=O)(=O)C(C)C)n2)c(OC(C)C)cc1C1CCNCC1` [CERITINIB]: the Kd (in assay [1]; in assay [2]; in assay [3]; at Wee1-like protein kinase; in assay [4]; in [5]) was > 30 µM (inactive) in each case. Moreover, the Kd is > 30 µM (inactive) in assay [6]; > 30 µM (inactive) in assay [7]; 5.43 µM (active) in [8]; > 30 µM (inactive) in assay [9]; > 30 µM (inactive) in assay [10]; > 30 µM (inactive) in [11].

As for `COCC(=O)NC/C=C/c1ccc2ncnc(Nc3ccc(Oc4ccc(C)nc4)c(C)c3)c2c1` [CP-724714], the Kd (in assay [1]; in [2]; in assay [3]; at Wee1-like protein kinase; in assay [4]; in [5]) was > 30 µM (inactive) in each case. Moreover, the Kd in [6], in [7], in [8], in assay [9], in [10] and in [11] was > 30 µM (inactive) in each case.

Consider `Cc1nc2cc(-n3ncc(C(=O)c4cc5ccccc5[nH]4)c3N)ccc2[nH]1` [FGFR INHIBITOR DEBIO 1347], for which the Kd (in [1]; in assay [2]; in [3]; at Wee1-like protein kinase; in [4]; in assay [5]) was > 30 µM (inactive) each time. The Kd in assay [6], in [7], in assay [8], in [9], in assay [10] and in [11] was > 30 µM (inactive) throughout.

Regarding `CNC(=O)c1cccc2cc(Oc3ccnc4cc(OCC5(N)CC5)c(OC)cc34)ccc12` [LUCITANIB], the Kd (in assay [1]; in [2]; in assay [3]; at Wee1-like protein kinase; in assay [4]; in [5]) was > 30 µM (inactive) throughout. Also, the Kd in assay [6], in assay [7], in [8], in assay [9], in [10] and in [11] was > 30 µM (inactive) throughout.

With `CN(C[C@@H]1COCCO1)S(=O)(=O)Nc1ccc2ccc3ncc(-c4cnn(C)c4)cc3c(=O)c2c1` [MK-2461], the Kd is > 30 µM (inactive) in assay [1]; 1.93 µM (active) in assay [2]; > 30 µM (inactive) in [3]; > 30 µM (inactive) at Wee1-like protein kinase; > 30 µM (inactive) in assay [4]; > 30 µM (inactive) in assay [5]. Also, the Kd in assay [6] is > 30 µM (inactive); in assay [7] it was > 30 µM (inactive); in assay [8], > 30 µM (inactive); in [9] it was > 30 µM (inactive); in assay [10], 2.59 µM (active); in assay [11], > 30 µM (inactive).

As for `COc1ncc(-c2ccc3nccc(-c4ccnnc4)c3c2)cc1NS(=O)(=O)c1ccc(F)cc1F` [OMIPALISIB], the Kd (in assay [1]; in [2]; in assay [3]; at Wee1-like protein kinase; in [4]; in assay [5]) was > 30 µM (inactive) in each case. Besides, the Kd in [6], in assay [7], in assay [8], in assay [9], in assay [10] and in [11] was > 30 µM (inactive) each time.

Source of the values: ChEMBL document CHEMBL3991601, “The target landscape of clinical kinase drugs” (Science, 2017).
